Assay results published in PubChem BioAssay AID256 (DTP/NCI, 2004).
Several values for one entry are separate records, joined by “and”; a condition that tells them apart may be missing. Equal values may be shown once. Inconclusive results and toxic doses are left out. How the source made its calls: active means survival T/C of 150% or more; inactive means T/C below 125% in these data.

System: CD2F1 mice, L1210 leukemia ip, survival T/C
Test: NCI In Vivo Anticancer Drug Screen. Data for tumor model L1210 Leukemia (intraperitoneal) in CD2F1 (CDF1) mice
Conditions: higher = longer survival
Outline: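 Each value reflects a quotient of treated over vehicle control outcomes in mice with a transplanted tumor.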

[1] = endpoint: mean survival time, dose: 100.0 mg/kg/injection, schedule: Q04DX003 (ip), vehicle: saline
[2] = endpoint: mean survival time, dose: 200.0 mg/kg/injection, schedule: Q04DX003 (ip), vehicle: saline
[3] = endpoint: mean survival time, dose: 100.0 mg/kg/injection, schedule: Q01DX001 (ip), vehicle: saline with Tween-80
[4] = endpoint: mean survival time, dose: 200.0 mg/kg/injection, schedule: Q01DX001 (ip), vehicle: saline with Tween-80
[5] = endpoint: mean survival time, dose: 400.0 mg/kg/injection, schedule: Q01DX001 (ip), vehicle: saline with Tween-80
[6] = endpoint: mean survival time, dose: 100.0 mg/kg/injection, schedule: Q04DX003 (ip), vehicle: saline with Tween-80
[7] = endpoint: mean survival time, dose: 200.0 mg/kg/injection, schedule: Q04DX003 (ip), vehicle: saline with Tween-80
[8] = endpoint: mean survival time, dose: 400.0 mg/kg/injection, schedule: Q04DX003 (ip), vehicle: saline with Tween-80
[9] = endpoint: mean survival time, dose: 50.0 mg/kg/injection, schedule: Q01DX009 (ip), vehicle: saline with Tween-80
[10] = endpoint: mean survival time, dose: 100.0 mg/kg/injection, schedule: Q01DX009 (ip), vehicle: saline with Tween-80
[11] = endpoint: mean survival time, dose: 200.0 mg/kg/injection, schedule: Q01DX009 (ip), vehicle: saline with Tween-80
[12] = endpoint: mean survival time, dose: 75.0 mg/kg/injection, schedule: Q01DX001 (ip), vehicle: saline
[13] = endpoint: mean survival time, dose: 150.0 mg/kg/injection, schedule: Q01DX001 (ip), vehicle: saline
[14] = endpoint: mean survival time, dose: 300.0 mg/kg/injection, schedule: Q01DX001 (ip), vehicle: saline
[15] = endpoint: mean survival time, dose: 100.0 mg/kg/injection, schedule: Q04DX002 (ip), vehicle: saline with Tween-80
[16] = endpoint: mean survival time, dose: 200.0 mg/kg/injection, schedule: Q04DX002 (ip), vehicle: saline with Tween-80

Measured: T/C

CC(=O)c1c(C)cc2cccc(OC3OC(CO)C(O)C(O)C3O)c2c1O (configuration not stated) (tested in a mixture with another compound)
inactive: [1] 103 % of control | [2] 104 % of control | endpoint: mean survival time, dose: 400.0 mg/kg/injection, schedule: Q04DX003 (ip), vehicle: saline 107 % of control

CN(C)C(=O)c1cc2ccccc2n1C
inactive: [3] 97 % of control | [4] 98 % of control | [5] 94 % of control

C=CCc1cc(OC)ccc1OC(C)=O
inactive: [6] 113 % of control | [7] 97 % of control | [8] 105 % of control

COc1cccc(CCC(=O)O)c1OC
inactive: endpoint: mean survival time, dose: 25.0 mg/kg/injection, schedule: Q01DX009 (ip), vehicle: Klucel (hydroxypropylcellulose) (HPC) 98 % of control | endpoint: mean survival time, dose: 50.0 mg/kg/injection, schedule: Q01DX009 (ip), vehicle: Klucel (hydroxypropylcellulose) (HPC) 101 % of control | endpoint: mean survival time, dose: 100.0 mg/kg/injection, schedule: Q01DX009 (ip), vehicle: Klucel (hydroxypropylcellulose) (HPC) 98 % of control | endpoint: mean survival time, dose: 200.0 mg/kg/injection, schedule: Q01DX009 (ip), vehicle: Klucel (hydroxypropylcellulose) (HPC) 87 % of control | endpoint: mean survival time, dose: 400.0 mg/kg/injection, schedule: Q01DX009 (ip), vehicle: Klucel (hydroxypropylcellulose) (HPC) 88 % of control

CS(=O)(=O)c1ccc(NN)c([N+](=O)[O-])c1
inactive: [6] 98 % of control | [7] 98 % of control | [8] 102 % of control

COC(=O)C(Cl)c1ccc2c(c1)OCO2 (configuration not stated)
inactive: [9] 96 % of control | [10] 96 % of control | [6] 96 % of control | [7] 93 % of control

Clc1ccc(Oc2ccc(Cl)cc2)cc1
inactive: [9] 94 % of control | [10] 100 % of control | [11] 105 % of control

NC(=O)CC(NC(=O)C(F)(F)F)C(=O)O (configuration not stated)
inactive: [12] 101 % of control | [13] 95 % of control | [14] 101 % of control

O=C1C=C(C2OC(CI)C(O)C2O)C(=O)N1 (configuration not stated)
inactive: endpoint: mean survival time, dose: 12.5 mg/kg/injection, schedule: Q01DX005 (ip), vehicle: water 109 % of control | endpoint: mean survival time, dose: 25.0 mg/kg/injection, schedule: Q01DX005 (ip), vehicle: water 107 % of control

CCCCS(=O)C(Cl)(CCC)C(C)(C)O (configuration not stated)
inactive: [6] 97 % of control | [7] 93 % of control | [8] 97 % of control

CN=C(NC)S(=O)O
inactive: endpoint: mean survival time, dose: 100.0 mg/kg/injection, schedule: Q01DX009 (ip), vehicle: saline 97 % of control | endpoint: mean survival time, dose: 200.0 mg/kg/injection, schedule: Q01DX009 (ip), vehicle: saline 97 % of control | endpoint: mean survival time, dose: 400.0 mg/kg/injection, schedule: Q01DX009 (ip), vehicle: saline 101 % of control

c1ccc([B-]2([C+]3CCCCC3)N3CCCCC3C3CCCCN32)cc1 (configuration not stated)
inactive: endpoint: mean survival time, dose: 3.12 mg/kg/injection, schedule: Q01DX009 (ip), vehicle: saline 90 % of control | endpoint: mean survival time, dose: 6.25 mg/kg/injection, schedule: Q01DX009 (ip), vehicle: saline 95 % of control | endpoint: mean survival time, dose: 12.5 mg/kg/injection, schedule: Q01DX009 (ip), vehicle: saline 101 % of control | endpoint: mean survival time, dose: 25.0 mg/kg/injection, schedule: Q01DX009 (ip), vehicle: saline 102 % of control | endpoint: mean survival time, dose: 50.0 mg/kg/injection, schedule: Q01DX009 (ip), vehicle: saline 86 % of control

CCC(CC(N)=O)C(C#N)(C#N)C(N)=O (configuration not stated)
inactive: [3] 100 % of control | [4] 98 % of control | [5] 98 % of control

COCCOCCOCCOCCOCCOCCOCCOCCOCCOCCOC(=O)N(CC[PH+](c1ccccc1)c1ccccc1)CC[PH+](c1ccccc1)c1ccccc1.[Cl][Pt][Cl]
inactive: endpoint: median survival time, dose: 3.13 mg/kg/injection, schedule: Q04DX003 (ip), vehicle: distilled water + Tween-80 101 % of control | endpoint: median survival time, dose: 6.25 mg/kg/injection, schedule: Q04DX003 (ip), vehicle: distilled water + Tween-80 100 % of control | endpoint: median survival time, dose: 12.5 mg/kg/injection, schedule: Q04DX003 (ip), vehicle: distilled water + Tween-80 104 % of control | endpoint: median survival time, dose: 25.0 mg/kg/injection, schedule: Q04DX003 (ip), vehicle: distilled water + Tween-80 96 % of control | endpoint: median survival time, dose: 50.0 mg/kg/injection, schedule: Q04DX003 (ip), vehicle: distilled water + Tween-80 115 % of control | endpoint: median survival time, dose: 100.0 mg/kg/injection, schedule: Q04DX003 (ip), vehicle: distilled water + Tween-80 100 % of control | endpoint: median survival time, dose: 200.0 mg/kg/injection, schedule: Q04DX003 (ip), vehicle: distilled water + Tween-80 98 % of control

CC(C)[CH2][Sn](=[O])[OH]
inactive: [9] 115 % of control | [10] 103 % of control

Nc1nc2c([nH]c(=S)n2C2OC(CO)C(O)C2O)c(=O)[nH]1 (configuration not stated)
inactive: [15] 100 % of control | [16] 97 % of control | endpoint: mean survival time, dose: 400.0 mg/kg/injection, schedule: Q04DX002 (ip), vehicle: saline with Tween-80 97 % of control

CC/C=C(\C)C(CCC)(CN=O)C(=O)OCC (configuration not stated)
inactive: [12] 101 % of control | [13] 97 % of control | [14] 95 % of control

CC(C)(CCC#N)C(=O)c1ccccc1
inactive: [15] 94 % of control | [16] 102 % of control

O=C(Nc1ccc(Cl)c(Cl)c1)Nc1cc(Cl)ccc1Sc1ccc(Cl)cc1S(=O)(=O)O
inactive: endpoint: mean survival time, dose: 25.0 mg/kg/injection, schedule: Q01DX009 (ip), vehicle: saline with Tween-80 100 % of control | [9] 100 % of control | [10] 105 % of control | [6] 101 % of control

C1=CC(=C(C2CCC(Nc3ccccc3)CC2)C2CCC(Nc3ccccc3)CC2)C=CC1=Nc1ccccc1 (configuration not stated)
inactive: [9] 103 % of control | [10] 101 % of control | [1] 104 % of control | [11] 107 % of control | [2] 104 % of control

COc1ccc2c(NCCCCCCNc3c4ccccc4nc4cc(OC)ccc34)c3ccccc3nc2c1
inactive: endpoint: mean survival time, dose: 0.07 mg/kg/injection, schedule: Q01DX009 (ip), vehicle: other 102 % of control | endpoint: mean survival time, dose: 0.15 mg/kg/injection, schedule: Q01DX009 (ip), vehicle: other 102 % of control | endpoint: mean survival time, dose: 0.16 mg/kg/injection, schedule: Q01DX009 (ip), vehicle: lactic acid 124 % of control | endpoint: mean survival time, dose: 0.31 mg/kg/injection, schedule: Q01DX009 (ip), vehicle: lactic acid 110 % of control | endpoint: mean survival time, dose: 0.31 mg/kg/injection, schedule: Q01DX009 (ip), vehicle: other 105 % of control | endpoint: mean survival time, dose: 0.62 mg/kg/injection, schedule: Q01DX009 (ip), vehicle: lactic acid 113 % of control | endpoint: mean survival time, dose: 0.63 mg/kg/injection, schedule: Q01DX009 (ip), vehicle: other 100 % of control | endpoint: mean survival time, dose: 1.25 mg/kg/injection, schedule: Q01DX009 (ip), vehicle: lactic acid 121 % of control and 122 % of control | endpoint: mean survival time, dose: 1.25 mg/kg/injection, schedule: Q01DX009 (ip), vehicle: other 107 % of control | endpoint: mean survival time, dose: 2.5 mg/kg/injection, schedule: Q01DX009 (ip), vehicle: lactic acid 122 % of control | endpoint: mean survival time, dose: 5.0 mg/kg/injection, schedule: Q01DX009 (ip), vehicle: lactic acid 116 % of control | endpoint: mean survival time, dose: 10.0 mg/kg/injection, schedule: Q01DX009 (ip), vehicle: lactic acid 122 % of control

CCOC(=O)CCC(NC(=O)N(CCCl)CCCl)C(=O)OCC (configuration not stated)
inactive: endpoint: mean survival time, dose: 25.0 mg/kg/injection, schedule: Q01DX001 (ip), vehicle: carboxymethylcellulose (CMC) 97 % of control | endpoint: mean survival time, dose: 50.0 mg/kg/injection, schedule: Q01DX001 (ip), vehicle: carboxymethylcellulose (CMC) 106 % of control | endpoint: mean survival time, dose: 100.0 mg/kg/injection, schedule: Q01DX001 (ip), vehicle: saline 103 % of control | endpoint: mean survival time, dose: 200.0 mg/kg/injection, schedule: Q01DX001 (ip), vehicle: saline 114 % of control | endpoint: mean survival time, dose: 900.0 mg/kg/injection, schedule: Q01DX001 (ip), vehicle: carboxymethylcellulose (CMC) 102 % of control

CC1CN=C(c2ccc(NC(=O)Nc3ccc(NC(=O)c4ccc(C5=NCC(C)N5)cc4)cc3)cc2)N1 (configuration not stated)
inactive: endpoint: mean survival time, dose: 26.0 mg/kg/injection, schedule: Q01DX Z (ip), vehicle: water 90 % of control

Cc1ccc(Nc2ncnc3c2ncn3C2OC(CO)C(O)C2O)cc1 (configuration not stated)
inactive: endpoint: mean survival time, dose: 12.5 mg/kg/injection, schedule: Q01DX005 (ip), vehicle: distilled water + Tween-80 94 % of control | endpoint: mean survival time, dose: 25.0 mg/kg/injection, schedule: Q01DX005 (ip), vehicle: distilled water + Tween-80 94 % of control | endpoint: mean survival time, dose: 50.0 mg/kg/injection, schedule: Q01DX005 (ip), vehicle: distilled water + Tween-80 94 % of control | endpoint: mean survival time, dose: 100.0 mg/kg/injection, schedule: Q01DX005 (ip), vehicle: distilled water + Tween-80 96 % of control | endpoint: mean survival time, dose: 200.0 mg/kg/injection, schedule: Q01DX005 (ip), vehicle: distilled water + Tween-80 94 % of control
